According to patent US7846735B2, “Compositions and methods for lipoprotein uptake assays” (General Electric Company, priority 2006, dated 2010):

Experiments:
[1] = biological target: T1, scavenger receptor A (SR-A, CD204) (Mus musculus, UniProt P30204); assay: Inhibition of CypHer5E-AcLDL uptake by known SR-A ligands; assay type: cell-based; details: RAW264.7 mouse macrophages, FIG. 7
T1 construct: endogenous in cells; host or cells: RAW264.7 mouse macrophages
T1 sequence (P30204 1-458): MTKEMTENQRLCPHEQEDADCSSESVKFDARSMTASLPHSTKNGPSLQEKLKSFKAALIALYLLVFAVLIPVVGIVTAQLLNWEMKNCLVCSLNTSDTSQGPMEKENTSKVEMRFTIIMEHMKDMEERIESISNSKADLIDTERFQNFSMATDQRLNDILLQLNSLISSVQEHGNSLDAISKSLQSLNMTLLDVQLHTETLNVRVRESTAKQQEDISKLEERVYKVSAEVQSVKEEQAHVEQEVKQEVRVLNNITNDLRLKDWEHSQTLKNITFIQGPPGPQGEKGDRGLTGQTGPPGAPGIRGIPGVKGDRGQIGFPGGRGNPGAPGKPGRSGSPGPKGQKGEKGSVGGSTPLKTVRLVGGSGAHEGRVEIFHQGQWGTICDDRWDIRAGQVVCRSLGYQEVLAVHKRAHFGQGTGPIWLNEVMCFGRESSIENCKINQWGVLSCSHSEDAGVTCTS
Description: RAW264.7 Mouse Macrophages, J774A.1 Mouse Macrophages, U-2 OS Human Osteosarcoma Cells were seeded in standard cell culture flasks and cultured in Dulbecco's Modified Eagle Medium (DMEM) with 10% fetal bovine serum (FBS) until about 70% to about 80% confluent. On the day of the assay, the cells were washed twice with serum-free DMEM, and incubated for 30 minutes in cell culture incubator in DMEM containing 1 μM Cell Tracker Green dye. After staining with Cell Tracker Green dye, cells were washed three times with serum-free DMEM, scraped from tissue culture flask, and resuspended in DMEM with 12.5% Fetal Bovine Lipoprotein Deficient Serum (FBLDS) at 250,000 cells/ml.
80 μl of Cell Tracker Green-labeled cells at 250,000 cells/ml were added to each well of ViewPlate 96-well plate in DMEM with 12.5% Fetal Bovine Lipoprotein Deficient Serum (FBLDS). For inhibitor studies, 10 μl of 10-fold stock of the inhibitor in DMEM containing 10% dimethyl sulfoxide (DMSO) were added to each well. 10 μl of DMEM containing 10% DMSO were added for control wells. Cells were pre-incubated for 30 minutes at 37° C. in a cell culture incubator in the presence of the inhibitor before addition of labeled AcLDL. At the end of pre-incubation period, 10 μl of 100 μg/ml CypHer5E-AcLdL solution were added to each well. The incubation continued for another 2 to 18 hours at 37° C. in cell culture incubator before imaging. The Dil AcLDL complex assay was identical to CypHer5E-AcLDL assay except that Dil AcLDL complex was added to cells in place of CypHer5E-AcLDL conjugate.
Following incubation, images of CypHer5E-AcLDL uptake were acquired on IN Cell Analyzer 1000 or 3000 (GE Healthcare) using a 10× or 20× objective and FITC/Cy5 excitation/emission filters. Analysis was performed using Granularity Analysis and Object Intensity Analysis Modules within IN Cell Analyzer system software suite or using Developer™ Image Analysis software.

[2] = pH dependence of dye fluorescence; assay type: physicochemical
Excerpt: The assays employ a pH-sensing cyanine dye, which is minimally fluorescent at neutral pH outside the cell, but highly fluorescent in the acidic environment (pKa ˜7.3; excitation peak 650 nm/emission peak 670 nm). In most instances, the lipoproteins or modified lipoproteins are taken up by cell-surface receptors through the process of receptor-mediated endocytosis. Once internalized, lipoproteins are transported to highly acidic vesicles. When labeled with CypHer5E dye, lipoproteins are minimally fluorescent at neutral pH outside the cell, but highly fluorescent in the acidic environment of the uptake vesicle. This translates into high signal-to-noise ratio compared to traditional dyes that are equally fluorescent inside or outside the cell. Additionally, the disclosed methods eliminate washing steps required for removal of excess of labeled lipoprotein in the media at the end of the protocol. […]
CypHer5E dye is 3 to 20 times more fluorescent in the acidic environment of the intracellular vesicles than at neutral pH outside the cell (pKa ˜7.3; excitation peak 650 nm/emission peak 670 nm). CypHer5E dye fluorescence is enhanced by the acidic conditions of lipoprotein-containing intracellular vesicles after receptor-mediated lipoprotein after the CypHer5E-AcLDL is internalized.

Row | inhibition of pH-sensing cyanine dye conjugate uptake (in words) [1] | pKa [2] | Compound
1 | inhibition | – | Dextran Sulfate MW 500,000 [Dex SO4]
2 | inhibition | – | Polyinosinic acid potassium salt [poly I]
3 | inhibition | – | Polyguanylic acid potassium salt [poly G]
4 | – | ~7.3 | CC1(C)C(/C=C/C=C/C=C2/Nc3ccc(S(=O)(=O)O)cc3C2(C)CCCCCC(=O)O)=[N+](CCCCS(=O)(=O)[O-])c2ccc(S(=O)(=O)O)cc21 (stereo not shown) [CypHer5E, 2-{[1E,3E,5E)-5-(3-methyl-3-(5-carboxypentyl)-5-sulfo-1,3-dihydro-2H-indol-2-ylidene]-1,3-pentadienyl}-3,3-dimethyl-5-sulfo-1-(4-sulfobutyl)-3H-indolium]
